A word on the pEC50: it is the EC50 on a negative log10 scale, so that one unit is a factor of ten. A lower pEC50 goes with a high EC50.

The structures appear in SMILES notation. pEC50: −log10 of the molar value. Residues, ends and D or L forms follow the SMILES beside them.

The values below come from US20160347813A1, “GLUCAGON ANALOGUES” (Zealand Pharma A/S, priority 2011, published 2016).

One assay concerns the target T1, human Glucagon-R (Homo sapiens, UniProt P47871).
T1 construct: The DNA encoding the Glucagon-R or the GLP-1-R was amplified by PCR using primers encoding terminal restriction sites for subcloning; expressed in transfected cells
Put plainly: Glucagon receptor efficacy assay (cAMP generation in HEK293 cells). It is filed as cell-based. Particulars: cAMP generation in HEK293 cells expressing Glucagon receptor. The source says:
(§1) The DNA encoding the Glucagon-R or the GLP-1-R was amplified by PCR using primers encoding terminal restriction sites for subcloning. The 5′-end primers additionally encoded a near Kozak consensus sequence to ensure efficient translation. The fidelity of the DNA encoding the Glucagon-R and the GLP-1-R was confirmed by DNA sequencing. The PCR products encoding the Glucagon-R or the GLP-1-R were subcloned into a mammalian expression vector containing a neomycin (G418) resistance marker. The mammalian expression vectors encoding the Glucagon-R or the GLP-1-R were transfected into HEK293 cells by a standard calcium phosphate transfection method. 48 hr after transfection cells were seeded for limited dilution cloning and selected with 1 mg/ml G418 in the culture medium. Three weeks later 12 surviving colonies of Glucagon-R and GLP-1-R expressing cells were picked, propagated and tested in the Glucagon-R and GLP-1-R efficacy assays as described below. One Glucagon-R expressing clone and one GLP-1-R expressing clone were chosen for compound profiling.
(§2) On the day of analysis, growth medium was removed and the cells washed once with 200 μl Tyrode buffer. Cells were incubated in 100 μl Tyrode buffer containing increasing concentrations of test peptides, 100 μM IBMX, and 6 mM glucose for up 15 min at 37° C. The reaction was stopped by addition of 25 μl 0.5 M HCl and incubated on ice for 60 min. The cAMP content was estimated using the FlashPlate® cAMP kit from Perkin-Elmer according to manufacturer instructions. EC50 and relative efficacies compared to reference compounds (glucagon and GLP-1) were estimated by computer aided curve fitting.

The target in a further assay is T2, human GLP-1-R (Homo sapiens, UniProt P43220).
T2 construct: The DNA encoding the Glucagon-R or the GLP-1-R was amplified by PCR using primers encoding terminal restriction sites for subcloning; expressed in transfected cells
T2 sequence (P43220 24-463): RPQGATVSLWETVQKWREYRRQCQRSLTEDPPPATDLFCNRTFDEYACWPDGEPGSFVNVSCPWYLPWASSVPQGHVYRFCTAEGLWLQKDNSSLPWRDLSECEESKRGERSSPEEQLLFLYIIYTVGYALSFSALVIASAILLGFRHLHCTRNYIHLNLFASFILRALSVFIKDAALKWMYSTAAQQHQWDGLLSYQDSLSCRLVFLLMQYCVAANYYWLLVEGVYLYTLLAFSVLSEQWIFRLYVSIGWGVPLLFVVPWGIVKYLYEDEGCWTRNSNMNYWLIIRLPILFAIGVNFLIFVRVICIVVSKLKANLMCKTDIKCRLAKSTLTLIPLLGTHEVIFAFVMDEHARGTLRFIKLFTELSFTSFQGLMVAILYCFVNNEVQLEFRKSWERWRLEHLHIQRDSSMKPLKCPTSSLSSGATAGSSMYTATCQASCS
Put plainly: GLP-1 receptor efficacy assay (cAMP generation in HEK293 cells). The class given is cell-based. Particulars: cAMP generation in HEK293 cells expressing GLP-1 receptor.
Source text: as §1, §2

T1 sequence (P47871 26-477): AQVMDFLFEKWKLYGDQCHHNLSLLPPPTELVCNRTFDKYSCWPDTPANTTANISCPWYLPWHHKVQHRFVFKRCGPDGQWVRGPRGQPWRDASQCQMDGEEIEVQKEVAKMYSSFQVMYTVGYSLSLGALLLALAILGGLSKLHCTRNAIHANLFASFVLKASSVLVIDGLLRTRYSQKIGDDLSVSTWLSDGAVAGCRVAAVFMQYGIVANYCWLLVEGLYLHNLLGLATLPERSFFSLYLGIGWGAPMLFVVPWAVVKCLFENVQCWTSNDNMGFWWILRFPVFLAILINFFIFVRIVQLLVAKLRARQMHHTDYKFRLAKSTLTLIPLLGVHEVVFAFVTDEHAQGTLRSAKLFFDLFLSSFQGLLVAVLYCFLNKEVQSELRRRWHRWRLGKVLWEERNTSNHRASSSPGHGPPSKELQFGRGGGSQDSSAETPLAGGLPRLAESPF

In the case of `CCCCCCCCCCCCCCCC(=O)N[C@@H](CCC(=O)NCCCC[C@H](NC(=O)[C@H](CCC(=O)O)NC(=O)[C@H](CC(=O)O)NC(=O)[C@H](CC(C)C)NC(=O)[C@H](Cc1ccc(O)cc1)NC(=O)[C@H](CCCNC(=N)N)NC(=O)[C@H](CO)NC(=O)[C@H](Cc1ccc(O)cc1)NC(=O)[C@H](CC(=O)O)NC(=O)[C@H](CO)NC(=O)[C@@H](NC(=O)[C@H](Cc1ccccc1)NC(=O)[C@@H](NC(=O)CNC(=O)[C@H](Cc1c[nH]cn1)NC(=O)[C@@H](CO)NC(=O)[C@@H](N)Cc1c[nH]cn1)[C@@H](C)O)[C@@H](C)O)C(=O)N[C@@H](CCCNC(=N)N)C(=O)N[C@@H](C)C(=O)N[C@@H](CCCNC(=N)N)C(=O)N[C@@H](CC(=O)O)C(=O)N[C@@H](Cc1ccccc1)C(=O)N[C@H](C(=O)N[C@@H](CCC(=O)O)C(=O)N[C@@H](Cc1c[nH]c2ccccc12)C(=O)N[C@@H](CC(C)C)C(=O)N[C@@H](CC(C)C)C(=O)N[C@@H](CO)C(=O)N[C@@H](C)C(N)=O)[C@@H](C)CC)C(=O)O` [Compound 11] (HELM PEPTIDE1{H.[dS].H.G.T.F.T.S.D.Y.S.R.Y.L.D.E.K.R.A.R.D.F.I.E.W.L.L.S.A.[am]}|PEPTIDE2{[CCCCCCCCCCCCCCCC(=O)[*:2]].[gGlu]}$PEPTIDE1,PEPTIDE2,17:R3-2:R2$$$V2.0), at human Glucagon-R, the pEC50 is 10.05.
Take `CCCCCCCCCCCCCCCC(=O)N[C@@H](CCC(=O)NCCCC[C@H](NC(=O)[C@H](CCC(=O)O)NC(=O)[C@H](CC(=O)O)NC(=O)[C@H](CC(C)C)NC(=O)[C@H](Cc1ccc(O)cc1)NC(=O)[C@H](CCCCN)NC(=O)[C@H](CO)NC(=O)[C@H](Cc1ccc(O)cc1)NC(=O)[C@H](CC(=O)O)NC(=O)[C@H](CO)NC(=O)[C@@H](NC(=O)[C@H](Cc1ccccc1)NC(=O)[C@@H](NC(=O)CNC(=O)[C@H](Cc1c[nH]cn1)NC(=O)[C@H](CO)NC(=O)[C@@H](N)Cc1c[nH]cn1)[C@@H](C)O)[C@@H](C)O)C(=O)N[C@@H](CCCNC(=N)N)C(=O)N[C@@H](C)C(=O)N[C@@H](CCCCN)C(=O)N[C@@H](CC(=O)O)C(=O)N[C@@H](Cc1ccccc1)C(=O)N[C@H](C(=O)N[C@@H](CCC(=O)O)C(=O)N[C@@H](Cc1c[nH]c2ccccc12)C(=O)N[C@@H](CC(C)C)C(=O)N[C@@H](CC(C)C)C(=O)N[C@@H](CO)C(=O)N[C@@H](C)C(N)=O)[C@@H](C)CC)C(=O)O` [Compound 18] (HELM PEPTIDE1{H.S.H.G.T.F.T.S.D.Y.S.K.Y.L.D.E.K.R.A.K.D.F.I.E.W.L.L.S.A.[am]}|PEPTIDE2{[CCCCCCCCCCCCCCCC(=O)[*:2]].[gGlu]}$PEPTIDE1,PEPTIDE2,17:R3-2:R2$$$V2.0): the pEC50 on human Glucagon-R is 10.05.
As to `CCCCCCCCCCCCCCCC(=O)N[C@@H](CCC(=O)NCCCC[C@H](NC(=O)[C@H](CCC(=O)O)NC(=O)[C@H](CC(=O)O)NC(=O)[C@H](CC(C)C)NC(=O)[C@H](Cc1ccc(O)cc1)NC(=O)[C@H](CCCNC(=N)N)NC(=O)[C@H](CO)NC(=O)[C@H](Cc1ccc(O)cc1)NC(=O)[C@H](CC(=O)O)NC(=O)[C@H](CO)NC(=O)[C@@H](NC(=O)[C@H](Cc1ccccc1)NC(=O)[C@@H](NC(=O)CNC(=O)[C@H](CCC(N)=O)NC(=O)[C@H](CO)NC(=O)[C@@H](N)Cc1c[nH]cn1)[C@@H](C)O)[C@@H](C)O)C(=O)N[C@@H](CCCNC(=N)N)C(=O)N[C@@H](C)C(=O)N[C@@H](CCCNC(=N)N)C(=O)N[C@@H](CC(=O)O)C(=O)N[C@@H](Cc1ccccc1)C(=O)N[C@H](C(=O)N[C@@H](CCC(=O)O)C(=O)N[C@@H](Cc1c[nH]c2ccccc12)C(=O)N[C@@H](CC(C)C)C(=O)N[C@@H](CC(C)C)C(=O)N[C@@H](CO)C(=O)N[C@@H](C)C(N)=O)[C@@H](C)CC)C(=O)O` [Compound 7] (HELM PEPTIDE1{H.S.Q.G.T.F.T.S.D.Y.S.R.Y.L.D.E.K.R.A.R.D.F.I.E.W.L.L.S.A.[am]}|PEPTIDE2{[CCCCCCCCCCCCCCCC(=O)[*:2]].[gGlu]}$PEPTIDE1,PEPTIDE2,17:R3-2:R2$$$V2.0), the pEC50 on human GLP-1-R and at human Glucagon-R was 10.22 in each case.
